Experimental data: US6358885B1, “Substituted phenylheterocyclic herbicides” (Mississippi State University, priority 1992, dated 2002)

Key:
morningglory = test: Test B preemergence/postemergence greenhouse plant response rating 0 to 10; format: in vivo, Ipomoea hederacea; settings: for Plant response rating, Morningglory: 0 to 10 scale
In short: (§1)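 Test chemicals were sprayed onto freshly planted seed and, concurrently, onto young plants between the one and four leaf stage. After a twelve- to sixteen-day greenhouse period, each species was visually compared with untreated controls.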

bedstraw = test: Test C preemergence/postemergence greenhouse plant response rating 0 to 100; format: in vivo, Galium aparine; settings: for Plant response rating, Bedstraw: 0 to 100 scale
In short: (§2)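 Compounds in non-phytotoxic solvent went onto sandy loam before emergence (seeded one day earlier) or onto plants at the one-to-four leaf stage. Duck salad was treated via flood water (~2.5 cm, maintained) over silt loam.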

crabgrass = test: as above; format: in vivo, Digitaria sanguinalis; settings: for Plant response rating, Crabgrass: 0 to 100 scale
In short: as §2

wheat [1] = test: Test B preemergence/postemergence greenhouse plant response rating 0 to 10; format: in vivo, Triticum aestivum; settings: for Plant response rating, Wheat: 0 to 10 scale
In short: as §1

blackgrass = test: Test C preemergence/postemergence greenhouse plant response rating 0 to 100; format: in vivo, Alopecurus myosuroides; settings: for Plant response rating, Blackgrass: 0 to 100 scale
In short: as §2

barnyardgrass = test: Test B preemergence/postemergence greenhouse plant response rating 0 to 10; format: in vivo, Echinochloa crus-galli; settings: for Plant response rating, Barnyardgrass: 0 to 10 scale
In short: as §1

wheat [2] = test: Test C preemergence/postemergence greenhouse plant response rating 0 to 100; format: in vivo, Triticum aestivum; settings: for Plant response rating, Wheat: 0 to 100 scale
In short: as §2

wild oat = test: as above; format: in vivo, Avena fatua; settings: for Plant response rating, Wild oat: 0 to 100 scale
In short: as §2

cotton = test: Test B preemergence/postemergence greenhouse plant response rating 0 to 10; format: in vivo, Gossypium hirsutum; settings: for Plant response rating, Cotton: 0 to 10 scale
In short: as §1

velvetleaf = test: as above; format: in vivo, Abutilon theophrasti; settings: for Plant response rating, Velvetleaf: 0 to 10 scale
In short: as §1

speedwell = test: Test C preemergence/postemergence greenhouse plant response rating 0 to 100; format: in vivo, Veronica persica; settings: for Plant response rating Speedwell: 0 to 100 scale
In short: as §2

giant foxtail = test: as above; format: in vivo, Setaria faberii; settings: for Plant response rating, Giant foxtail: 0 to 100 scale
In short: as §2

rape = test: as above; format: in vivo, Brassica napus; settings: for Plant response rating, Rape: 0 to 100 scale
In short: as §2

C#CC(C)Oc1cc(-c2nn3c(c2Br)CCCC3)c(F)cc1Cl (stereo not drawn) [Compound 66]
10: Plant response rating, Morningglory (morningglory; POSTEMERGENCE, Rate 50 g/ha) | Plant response rating, Morningglory (morningglory; Rate 200 g/ha, POSTEMERGENCE) | Plant response rating (0 to 100), Crabgrass (crabgrass; POSTEMERGENCE, Rate 4 g/ha) | Plant response rating (0 to 100), Wild oat (wild oat; POSTEMERGENCE, Rate 4 g/ha) | Plant response rating, Cotton (cotton; POSTEMERGENCE, Rate 50 g/ha) | Plant response rating, Cotton (cotton; Rate 200 g/ha, POSTEMERGENCE) | Plant response rating, Velvetleaf (velvetleaf; POSTEMERGENCE, Rate 50 g/ha) | Plant response rating, Velvetleaf (velvetleaf; Rate 200 g/ha, POSTEMERGENCE)
60: Plant response rating (0 to 100), Bedstraw (bedstraw; POSTEMERGENCE, Rate 4 g/ha) | Plant response rating, Blackgrass (blackgrass; POSTEMERGENCE, 62 g/ha) | Plant response rating, Wheat (wheat [2]; POSTEMERGENCE, 62 g/ha) | Plant response rating, Wild oat (wild oat; POSTEMERGENCE, 250 g/ha) | Plant response rating (0 to 100), Rape (rape; Rate 16 g/ha, POSTEMERGENCE)
3: Plant response rating (0 to 10 scale), Wheat (wheat [1]; PREEMERGENCE, Rate 200 g/ha)
0: Plant response rating, Morningglory (morningglory; PREEMERGENCE, Rate 50 g/ha) | Plant response rating (0 to 100), Bedstraw (bedstraw; PREEMERGENCE, Rate 4 g/ha) | Plant response rating (0 to 100), Crabgrass (crabgrass; PREEMERGENCE, Rate 4 g/ha) | Plant response rating (0 to 100), Crabgrass (crabgrass; Rate 16 g/ha, PREEMERGENCE) | Plant response rating, Wheat (wheat [1]; PREEMERGENCE, Rate 50 g/ha) | Plant response rating (0 to 100), Blackgrass (blackgrass; PREEMERGENCE, Rate 4 g/ha) | Plant response rating, Barnyardgrass (barnyardgrass; PREEMERGENCE, Rate 50 g/ha) | Plant response rating (0 to 100), Wheat (wheat [2]; PREEMERGENCE, Rate 4 g/ha) | Plant response rating (0 to 100), Wheat (wheat [2]; Rate 16 g/ha, PREEMERGENCE) | Plant response rating (0 to 100), Wild oat (wild oat; PREEMERGENCE, Rate 4 g/ha) | Plant response rating (0 to 100), Wild oat (wild oat; Rate 16 g/ha, PREEMERGENCE) | Plant response rating, Cotton (cotton; PREEMERGENCE, Rate 50 g/ha) | Plant response rating (0 to 10 scale), Cotton (cotton; PREEMERGENCE, Rate 200 g/ha) | Plant response rating (0 to 100), Speedwell (speedwell; PREEMERGENCE, Rate 4 g/ha) | Plant response rating (0 to 100), Giant foxtail (giant foxtail; PREEMERGENCE, Rate 4 g/ha) | Plant response rating (0 to 100), Giant foxtail (giant foxtail; Rate 16 g/ha, PREEMERGENCE) | Plant response rating (0 to 100), Rape (rape; PREEMERGENCE, Rate 4 g/ha) | Plant response rating (0 to 100), Rape (rape; Rate 16 g/ha, PREEMERGENCE)
30: Plant response rating, Wild oat (wild oat; PREEMERGENCE, 250 g/ha) | Plant response rating (0 to 100), Giant foxtail (giant foxtail; POSTEMERGENCE, Rate 4 g/ha) | Plant response rating, Rape (rape; PREEMERGENCE, 250 g/ha)
85: Plant response rating (0 to 100), Bedstraw (bedstraw; Rate 16 g/ha, POSTEMERGENCE)
7: Plant response rating (0 to 10 scale), Barnyardgrass (barnyardgrass; PREEMERGENCE, Rate 200 g/ha)
40: Plant response rating, Crabgrass (crabgrass; POSTEMERGENCE, 62 g/ha) | Plant response rating (0 to 100), Blackgrass (blackgrass; Rate 16 g/ha, POSTEMERGENCE) | Plant response rating (0 to 100), Wheat (wheat [2]; Rate 16 g/ha, POSTEMERGENCE) | Plant response rating (0 to 100), Rape (rape; POSTEMERGENCE, Rate 4 g/ha)
2: Plant response rating (0 to 10 scale), Morningglory (morningglory; PREEMERGENCE, Rate 200 g/ha)
80: Plant response rating, Bedstraw (bedstraw; PREEMERGENCE, 62 g/ha) | Plant response rating, Blackgrass (blackgrass; POSTEMERGENCE, 250 g/ha)
5: Plant response rating, Wheat (wheat [1]; POSTEMERGENCE, Rate 50 g/ha) | Plant response rating, Wheat (wheat [1]; Rate 200 g/ha, POSTEMERGENCE) | Plant response rating, Barnyardgrass (barnyardgrass; POSTEMERGENCE, Rate 50 g/ha)
20: Plant response rating (0 to 100), Bedstraw (bedstraw; Rate 16 g/ha, PREEMERGENCE) | Plant response rating (0 to 100), Crabgrass (crabgrass; Rate 16 g/ha, POSTEMERGENCE) | Plant response rating (0 to 100), Blackgrass (blackgrass; POSTEMERGENCE, Rate 4 g/ha) | Plant response rating (0 to 100), Blackgrass (blackgrass; Rate 16 g/ha, PREEMERGENCE) | Plant response rating (0 to 100), Wheat (wheat [2]; POSTEMERGENCE, Rate 4 g/ha) | Plant response rating (0 to 100), Wild oat (wild oat; Rate 16 g/ha, POSTEMERGENCE) | Plant response rating, Giant foxtail (giant foxtail; PREEMERGENCE, 62 g/ha) | Plant response rating, Rape (rape; PREEMERGENCE, 62 g/ha)
6: Plant response rating, Velvetleaf (velvetleaf; PREEMERGENCE, Rate 50 g/ha)
70: Plant response rating, Blackgrass (blackgrass; PREEMERGENCE, 62 g/ha) | Plant response rating, Blackgrass (blackgrass; PREEMERGENCE, 250 g/ha) | Plant response rating, Wheat (wheat [2]; POSTEMERGENCE, 250 g/ha) | Plant response rating, Wheat (wheat [2]; PREEMERGENCE, 250 g/ha) | Plant response rating, Giant foxtail (giant foxtail; POSTEMERGENCE, 62 g/ha)
50: Plant response rating, Crabgrass (crabgrass; POSTEMERGENCE, 250 g/ha) | Plant response rating, Crabgrass (crabgrass; PREEMERGENCE, 62 g/ha) | Plant response rating, Wild oat (wild oat; POSTEMERGENCE, 62 g/ha) | Plant response rating (0 to 100), Giant foxtail (giant foxtail; Rate 16 g/ha, POSTEMERGENCE)
100: Plant response rating, Bedstraw (bedstraw; POSTEMERGENCE, 62 g/ha) | Plant response rating, Bedstraw (bedstraw; POSTEMERGENCE, 250 g/ha) | Plant response rating, Crabgrass (crabgrass; PREEMERGENCE, 250 g/ha) | Plant response rating Speedwell (speedwell; POSTEMERGENCE, 62 g/ha) | Plant response rating Speedwell (speedwell; POSTEMERGENCE, 250 g/ha) | Plant response rating (0 to 100), Speedwell (speedwell; POSTEMERGENCE, Rate 4 g/ha) | Plant response rating Speedwell (speedwell; PREEMERGENCE, 250 g/ha) | Plant response rating (0 to 100), Speedwell (speedwell; Rate 16 g/ha, POSTEMERGENCE) | Plant response rating, Giant foxtail (giant foxtail; PREEMERGENCE, 250 g/ha) | Plant response rating, Rape (rape; POSTEMERGENCE, 62 g/ha) | Plant response rating, Rape (rape; POSTEMERGENCE, 250 g/ha)
90: Plant response rating, Bedstraw (bedstraw; PREEMERGENCE, 250 g/ha) | Plant response rating (0 to 100), Speedwell (speedwell; Rate 16 g/ha, PREEMERGENCE) | Plant response rating, Giant foxtail (giant foxtail; POSTEMERGENCE, 250 g/ha)
9: Plant response rating, Barnyardgrass (barnyardgrass; Rate 200 g/ha, POSTEMERGENCE) | Plant response rating (0 to 10 scale), Velvetleaf (velvetleaf; PREEMERGENCE, Rate 200 g/ha)
